Experimental data published in paper PMC12333940, “A prometabolite strategy inhibits cardiometabolic disease in an ApoE^–/– murine model of atherosclerosis” (JCI Insight, 2025).
Several values for one entry are separate records, joined by “and”; a condition that tells them apart may be missing. Identical values can stand only once.

Tests used:
RAW 264.7 macrophages [1] = assay: LEGENDPlex cytokines in supernatant of LPS-stimulated RAW 264.7; format: cell-based; design: TNFa (Legendplex) / MCP-1 (Legendplex) / IL-10 (Legendplex) / IL-6 (Legendplex): unit not given here
Protocol: RAW 264.7 (ATCC, TIB-71) macrophages were cultured at 37°C and 5% CO2 in DMEM (Gibco) supplemented with 1 mM HEPES, 1 mM sodium pyruvate, 10% FBS, and penicillin/streptomycin. Cells were plated in round-bottom 96-well plates at 100,000 cells per well and incubated with different concentrations of either NaBut or SerBut (0.15–12 mM) for 24 hours. Cells were then rinsed with PBS and then stimulated with 200 ng/mL LPS in media for 6 hours. The cell culture supernatant was collected and analyzed by LEGENDPlex to analyze the concentrations of cytokines (BioLegend). Cell phenotype was analyzed using flow cytometry (Cytek Aurora).

RAW 264.7 macrophages [2] = assay: Flow cytometry of iNOS, CD80, CD86 in LPS-stimulated RAW 264.7; format: cell-based; conditions: for CD80+ % Live / CD86+ % Live / iNOS+ %Live: listed as SB
Protocol: RAW 264.7 (ATCC, TIB-71) macrophages were cultured at 37°C and 5% CO2 in DMEM (Gibco) supplemented with 1 mM HEPES, 1 mM sodium pyruvate, 10% FBS, and penicillin/streptomycin. Cells were plated in round-bottom 96-well plates at 100,000 cells per well and incubated with different concentrations of either NaBut or SerBut (0.15–12 mM) for 24 hours. […] The cell culture supernatant was collected and analyzed by LEGENDPlex to analyze the concentrations of cytokines (BioLegend). Cell phenotype was analyzed using flow cytometry (Cytek Aurora).
Flow cytometry was performed using a BD LSRFortessa or a Cytek Aurora full-spectrum cytometer. Data were analyzed using FlowJo version 10.8.0. eFluor 780 Viability Dye (Invitrogen, 65-0865-14) and antibodies against the following markers were used in the RAW 264.7 macrophage in vitro studies: CD86 (BV421; BD Horizon, catalog 564198), CD80 (BC650; BioLegend, clone 16-10A1, catalog 104732), and iNOS (APC; Invitrogen, clone CXNFT, catalog 17-5920-9). Live/Dead Blue (Invitrogen, 123105A) and antibodies against the following markers were used in the atherosclerosis mouse models: F4/80 (FITC; BioLegend, clone BM8, catalog 123108), CD3e (BV605; BD Biosciences, clone 145-2C11, catalog 563565), CD4 (BUV496; BD Biosciences, clone GK 1.5, catalog 612952), RORγt (AF647; BD Biosciences, clone Q31-378, catalog 562682), FoxP3 (AF488, BD Biosciences, clone MF23, catalog 560403), CCR2 (PE; R&D Systems, catalog FAB5538P), Ly6C (APC-Cy7; BioLegend, catalog 128026, clone HK1.4), Ly6G (AF488; BioLegend, catalog 127626), CD8 (APC-Cy7; BioLegend, clone 53-6.7, catalog 100714), CD45 (BUV805; Invitrogen, clone 30-F11, catalog 368-0451-82), and CD25 (PerCP-Cy5.5; BioLegend, clone PC61, catalog 102030).

[3] = Biodistribution of free butyrate in intestinal tissue and contents, C57BL/6 mice; format: in vivo
Source text: NaBut is limited in its translation by butyrate’s rapid consumption by colonocytes as a primary energy source in the distal gut. We propose that the enhanced biodistribution of free, active butyrate (following cleavage from serine) in SerBut-treated mice is due to small intestinal escape from the gut via amino acid transporters. To probe this hypothesis, we repeated the experiment and analyzed the biodistribution of free active butyrate in distinct sections of the intestinal tissue and the intestinal contents (Figure 2, K and L, and Supplemental Figure 2). Because neither ApoE^–/– nor HFD feeding would be expected to change amino acid receptor expression or function in the intestine, this was performed in C57BL/6 mice on a normal diet. […] We saw no increase in butyrate in the colon tissue (Figure 2P).
Samples were prepared and derivatized as described previously ([28]). […] The internal standard, 4-methylvaleric acid, was added.
Injection volume: 5.0 μL. Flow rate: 0.5 mL/min.

ApoE^–/– mice on an HFD = assay: Flow cytometry of blood, lymph nodes and spleen; format: in vivo, mouse; design: Treg / Th17 / F480+CD11b+ Macrophages / iNOS+ Macs / Arg1+ Macs: unit not given here
Protocol: SerBut water was pH adjusted using 10 M NaOH to a final pH of 7.4. […] After 6 weeks, mice were euthanized. The lMLNs, ILNs, spleen, heart, and aorta were harvested and processed for flow cytometry analysis ([67]). […] The remaining liver was fixed with 4% paraformaldehyde and embedded in paraffin for histological analysis.
Flow cytometry was performed using a BD LSRFortessa or a Cytek Aurora full-spectrum cytometer.

[4] = 12 mM 24 h, then 200 ng/mL LPS 6 h
[5] = 4 mM, 12 Hour LPS stim after Butyrate treament
[6] = 4 mM, 12 hour LPS stim before butyrate treatment
[7] = 12 mM, 12 Hour LPS stim after Butyrate treament
[8] = 12 mM, 12 hour LPS stim before butyrate treatment
[9] = Inguinal Lymph Node Flow, individual mice
[10] = Mesenteric Lymph Node Flow, individual mice

## CCCC(=O)OC[C@H](N)C(=O)O [SerBut, O-butyryl-L-serine]
RAW 264.7 macrophages [1]; 1.3 mM 24 h, then LPS 6 h
  TNFa (Legendplex): 4133.05 and 4500 and 3675.16 and 3268.68 and 3195.27 and 3191.26
RAW 264.7 macrophages [1]; 4 mM 24 h, then LPS 6 h
  TNFa (Legendplex): 3513.15 and 3456.91 and 3852.76 and 3385.25 and 3103.2 and 3863.3
RAW 264.7 macrophages [1]; [4]
  TNFa (Legendplex): 1963.6 and 2002.31 and 2185.35 and 1388.16 and 2487.75 and 2408.88
RAW 264.7 macrophages [1]; 12 mM, as effectively as 1.3 mM NaBut
  production of IL-6, MCP-1 and GM-CSF: suppressed NF-κB–regulated production of proinflammatory cytokines
RAW 264.7 macrophages [1]; compared with LPS-stimulated controls
  IL-10: trending increase
RAW 264.7 macrophages [2]; 1.3 mM 24 h, then LPS 6 h
  CD80 MFI: 22757 and 22379 and 22182 and 22697 and 22413
  iNOS MFI: 133476 and 131849 and 120651 and 126894 and 131328
RAW 264.7 macrophages [2]; 4 mM 24 h, then LPS 6 h
  CD80 MFI: 22258 and 21750 and 21713 and 21977 and 22364 and 21487
  iNOS MFI: 123258 and 124792 and 115548 and 125159 and 131532 and 119298
RAW 264.7 macrophages [2]; [5]
  CD80+ % Live: 20.6% and 26% and 25.2%
  CD86+ % Live: 6.07% and 6.44% and 6.25%
  iNOS+ %Live: 57.8% and 66.6% and 65.8%
RAW 264.7 macrophages [2]; [6]
  CD80+ % Live: 45.8% and 43.1% and 44.5%
  CD86+ % Live: 14.9% and 14.1% and 14.2%
  iNOS+ %Live: 40.8% and 45.6% and 40.9%
RAW 264.7 macrophages [2]; 12 mM
  iNOS and CD80 expression after LPS stimulation: significantly reduced
RAW 264.7 macrophages [2]; [4]
  CD80 MFI: 20826 and 21079 and 20195 and 20493 and 21214 and 20412
RAW 264.7 macrophages [2]; 12 mM 24 h, then LPS 6 h
  iNOS MFI: 95330 and 101513 and 93052 and 99228 and 94381 and 96644
RAW 264.7 macrophages [2]; [7]
  CD80+ % Live: 13.7% and 18.3% and 22.8%
  CD86+ % Live: 6.99% and 8.29% and 9.22%
  iNOS+ %Live: 26.5% and 43.9% and 50.9%
RAW 264.7 macrophages [2]; [8]
  CD80+ % Live: 43.1% and 48% and 48.3%
  CD86+ % Live: 14.5% and 13.5% and 15.9%
  iNOS+ %Live: 31.3% and 49.4% and 36.1%
RAW 264.7 macrophages [2]; high doses
  iNOS-suppressing capacity during longer LPS stimulations: maintained
[3]; C57BL/6, normal chow, 3 hr after single gavage
  free butyrate, Lower SI Contents: 61.2227 µg/g and 52.7128 µg/g and 33.2508 µg/g and 35.0221 µg/g
[3]; C57BL/6, normal diet
  butyrate in the colon tissue: no increase
  free butyrate in the intestinal contents: no significant changes
[3]; compared with both PBS- and NaBut-treated mice
  free butyrate in upper and lower small intestine and ileum tissue: significantly more free, active butyrate
ApoE^–/– mice on an HFD; 6 weeks, compared with both NaBut- and water-treated controls
  frequency of circulating Ly6G^+CD11b^+ neutrophils: significantly reduced
ApoE^–/– mice on an HFD; [9]
  Arg1+ Macs: 3.53 and 2.72 and 2.64 and 3.19 and 3.9 and 5.62 and 3.61 and 5.94 and 4.82 and 4.83 and 3.4 and 2.08 and 3.78 and 5.04
  F480+CD11b+ Macrophages: 0.56 and 0.54 and 0.36 and 0.83 and 0.61 and 1.4 and 0.33 and 0.64 and 0.46 and 0.86 and 0.43 and 0.29
  Th17: 7.49 and 5.92 and 1.67 and 2.37 and 3.33 and 2.23 and 8.03 and 16.8 and 2.7
  Th17/Treg: 0.5095 and 0.3947 and 0.09489 and 0.1274 and 0.2068 and 0.1161 and 0.4294 and 1.037 and 0.1588
  Treg: 14.7 and 15 and 17.6 and 18.6 and 16.1 and 19.2 and 18.7 and 16.2 and 17
  iNOS+ Macs: 5.43 and 3.21 and 3.87 and 2.26 and 2.24 and 2.49 and 6.09 and 2.15 and 4.59 and 2.91 and 7.23 and 2.89 and 7.07 and 5.7
ApoE^–/– mice on an HFD; MLNs and spleen
  Th17/Treg cell ratio: reduced the Th17/Treg cell ratio
ApoE^–/– mice on an HFD; MLNs, not ILNs, compared with controls, but not NaBut-treated mice
  iNOS^+ of CD11b^+F480^+ macrophages: significantly decreased
ApoE^–/– mice on an HFD; MLNs, not skin-draining lymph nodes or spleen
  regulatory T cells: expanded
ApoE^–/– mice on an HFD; [10]
  Arg1+ Macs: 3.56 and 1.85 and 2.39 and 1.1 and 1.07 and 1.12 and 0.97 and 1.19 and 1.91 and 0.93 and 1.08 and 1.16 and 0.95
  F480+CD11b+ Macrophages: 5.85 and 7.28 and 6.98 and 8.63 and 11.2 and 7.11 and 5.47 and 7.35 and 5.84 and 3.45 and 4.72 and 5.77 and 7.09
  Th17: 7.78 and 13.7 and 14.7 and 8.43 and 9.66 and 19.2 and 12
  Th17/Treg: 0.5329 and 0.6372 and 0.9423 and 0.493 and 0.6114 and 1.091 and 0.7843
  Treg: 14.6 and 21.5 and 15.6 and 17.1 and 15.8 and 17.6 and 15.3
  iNOS+ Macs: 0.64 and 1 and 0.46 and 0.71 and 0.58 and 0.74 and 0.6 and 0.68 and 1.54 and 0.88 and 0.65 and 0.69
ApoE^–/– mice on an HFD; Spleen Flow, individual mice
  Th17: 0.83 and 1.07 and 1.3 and 0.97 and 1.12 and 1.08 and 1 and 1.34
  Th17/Treg: 0.115 and 0.1219 and 0.1671 and 0.1127 and 0.16 and 0.145 and 0.1264 and 0.1603
  Treg: 7.22 and 8.78 and 7.78 and 8.61 and 7 and 7.45 and 7.91 and 8.36
ApoE^–/– mice on an HFD; blood, individual mice
  Blood Neutrophils: CD11b+Ly6G+ %CD45: 12.2 %CD45 and 10.2 %CD45 and 11.9 %CD45 and 16 %CD45 and 15.3 %CD45 and 6.9 %CD45 and 6.35 %CD45 and 13.7 %CD45 and 8 %CD45 and 10.6 %CD45 and 17.9 %CD45 and 2.21 %CD45 and 2.25 %CD45 and 7.63 %CD45
